Tests used:
[1] = molecular target: ASPD (Homo sapiens, UniProt P05067); assay: Surface plasmon resonance (SPR), biotinylated AAT peptide on chip, ASPD as ligand; assay type: binding; details: peptide solid phase on chip
Excerpt: Biotin was bound to each C-terminal side of the above-mentioned AAT peptides 01 to […] and made into a solid phase on a chip, and a dissociation constant was obtained by surface plasmon resonance (SPR) using ASPD as a ligand.

[2] = molecular target: T1, 105 kDa band (Na+/K+-ATPase α3) (Rattus norvegicus, UniProt P06687); assay: Far-western blotting of cell extracts; assay type: binding; details: extracts of neurons and HEK293 cells; detection with haASD1 (ASPD) or 6E10 (Aβ monomer)
T1 construct: endogenous in cells; host or cells: rat hippocampus-derived primary cultured neurons (mature)
Method: Extracts were prepared with RadioImmunoPrecipitation Assay (RIPA) respectively from the rat hippocampus-derived primary cultured neurons (number of culture days shown in FIG. 4) and the HEK293 cells, and protein amounts of the extracts were determined. Then, predetermined amounts of the extracts were subjected to electrophoresis with SDS-PAGE and transcribed to a nitrocellulose membrane, and reacted with native ASPD or an Aβ monomer for a predetermined period of time. The binding of the native ASPD was detected with anti-ASPD antibodies haASD1, and the binding of the Aβ monomer was detected with 6E10 that was commercially available anti-Aβ monomer antibodies (far-western blotting).
Thus, the synthetic ASPD is considered to be equivalent to the native ASPD, and after that, analysis was carried out using the synthetic ASPD.

[3] = test system: mature rat hippocampus-derived primary cultured neurons; assay: Inhibition effect of AAT peptides on ASPD apoptotic activity (neutralization); assay type: cell-based; details: 4 μM synthetic ASPD, 24 hours; for inhibition effect on ASPD apoptotic activity compared with AAT01: 0.14 μM peptide, FIG. 19
Method: Based on the fact that anti-ASPD antibodies bind to ASPD to inhibit interaction between ASPD and NAKα3 that is a target molecule to suppress death of neurons, a peptide having similar effect was searched. For this purpose, ASPD immobilized to a microtiter plate was screened through use of (commercially available) phage display library in which a library of random 12 amino acids was expressed on a virus surface, and a converged sequence was analyzed. […] A peptide having neutralization activity was named as an Anti-AD toxicity (AAT) peptide.
The apoptotic activity was measured 24 hours later and compared with that of a control to which the AAT peptide has not been administered, whereby the inhibition activity was calculated.

Sequence of ASPD (P05067 672-713 limits assumed): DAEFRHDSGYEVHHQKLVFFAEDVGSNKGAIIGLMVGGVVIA

Row | Compound | ka [1] | kd [1] | further results
1 | CC(C)C[C@H](NC(=O)[C@H](CC(N)=O)NC(=O)[C@H](Cc1ccc(O)cc1)NC(=O)[C@H](Cc1c[nH]c2ccccc12)NC(=O)[C@H](CC(N)=O)NC(=O)[C@H](Cc1ccccc1)NC(=O)[C@@H](N)Cc1c[nH]cn1)C(=O)N[C@@H](Cc1c[nH]c2ccccc12)C(=O)N[C@@H](CCCNC(=N)N)C(=O)N[C@H](C(=O)N[C@@H](CCC(N)=O)C(=O)N[C@@H](Cc1ccc(O)cc1)C(=O)N[C@@H](CCCCNC(=O)CCCC[C@@H]1SC[C@@H]2NC(=O)N[C@@H]21)C(N)=O)C(C)C [C-terminal biotinylated AAT01] | 7.64 × 10^3 | 4.41 × 10^-4 | 
2 | CC(C)C[C@H](NC(=O)[C@@H](N)Cc1c[nH]cn1)C(=O)N[C@@H](CC(N)=O)C(=O)N[C@@H](Cc1c[nH]c2ccccc12)C(=O)N[C@@H](Cc1c[nH]c2ccccc12)C(=O)N[C@@H](Cc1c[nH]cn1)C(=O)N[C@@H](CO)C(=O)N[C@@H](Cc1c[nH]c2ccccc12)C(=O)N[C@@H](Cc1ccc(O)cc1)C(=O)N1CCC[C@H]1C(=O)N[C@@H](C)C(=O)N[C@@H](CCCNC(=N)N)C(=O)N[C@@H](CCCCNC(=O)CCCC[C@@H]1SC[C@@H]2NC(=O)N[C@@H]21)C(N)=O [C-terminal biotinylated AAT02] | 5.60 × 10^3 | 4.62 × 10^-4 | 
3 | CC(C)C[C@H](NC(=O)[C@H](Cc1c[nH]c2ccccc12)NC(=O)[C@H](CC(N)=O)NC(=O)[C@H](CC(C)C)NC(=O)[C@@H](N)Cc1c[nH]cn1)C(=O)N[C@@H](CO)C(=O)N[C@@H](Cc1c[nH]c2ccccc12)C(=O)N[C@@H](Cc1ccccc1)C(=O)N1CCC[C@H]1C(=O)N[C@@H](CO)C(=O)N[C@@H](CCCNC(=N)N)C(=O)N[C@@H](Cc1c[nH]cn1)C(=O)N[C@@H](CCCCNC(=O)CCCC[C@@H]1SC[C@@H]2NC(=O)N[C@@H]21)C(N)=O [C-terminal biotinylated AAT03] | 4.96 × 10^3 | 4.39 × 10^-4 | 
4 | Aβ monomer: peptide cleaved from amyloid precursor protein (APP) with β- and γ-secretase |  |  | binding to 105 kDa band in far-western blotting [2]: did not bind to the band
5 | HFNW (ASPD-interacting motif/peptide) [AAT06] |  |  | inhibition effect on ASPD apoptotic activity compared with AAT04 ([3]; 2.8 μM peptide, FIG. 20): equal to or higher than that of the AAT04
6 | HFNWD (ASPD-interacting motif/peptide) [AAT04] |  |  | inhibition effect on ASPD apoptotic activity compared with AAT01 [3]: equal to or more than that of the AAT01
7 | HFNWDW (ASPD-interacting motif/peptide) [AAT05] |  |  | inhibition effect on ASPD apoptotic activity compared with AAT01 [3]: equal to or more than that of the AAT01

— US20170327536A1, “NEUROTOXIC TARGET FOR AMYLOSPHEROID, METHOD AND MATERIAL FOR REDUCING THE NEUROTOXICITY OF AMYLOSPHEROID, AND USE THEREOF” (TAO Health Life Pharma Co., Ltd., priority 2011, published 2017)
